Data set [1] has as its system P. falciparum TM90C2A (Thailand). In words: [3H]-hypoxanthine incorporation assay, TM90C2A. The data set is classed as cell-based, Plasmodium falciparum. The following applies: read-out: 50% inhibitory concentration (IC50), resistance CQ, PYR, MFQ, CYC, mean ± SD.
In the next data set the test system is Cam3.II^C580Y parasites. In words: microbe, parasite or virus in culture. The data set is classed as cell-based, P. falciparum. How it is done: (§1) Parasites were cultured at Columbia University Medical Center (New York, USA) as previously described (1). Cam3.II and V1/S parasites, which had been genetically engineered to express K13 wild-type or K13 C580Y were seeded in a 96-well plate at 0.2% parasitemia and 1% hematocrit (2). […] Parasites were then stained with SYBR Green I (Invitrogen) and MitoTracker Deep Red (ThermoFisher Scientific) for 20 minutes at 37 °C (3). Stained parasites were detected using a BD Accuri 6 Flow Cytometer, and analyzed using FlowJo Software. IC50 values were determined by nonlinear regression using GraphPad Prism 6.0. For statistical analyses, Student’s t-tests were performed, and significance was set at P < 0.05.
(§2) Values indicate mean ± SEM, shown in nM. Significance determined by Student's t-test against parental lines.

Data set [2] deals with Cam3.II^rev parasites (K13 wild-type). In words: microbe, parasite or virus in culture. The data set is classed as cell-based, P. falciparum. On the procedure: as §1, §2
Data set [3] has as its system V1/S parasites (K13 wild-type). In words: microbe, parasite or virus in culture. The class given is cell-based, P. falciparum. On the procedure: as §1, §2
For a further data set, the system named is V1/S^C580Y parasites. In words: microbe, parasite or virus in culture. The data set is classed as cell-based, P. falciparum. How it is done:
as §1, §2

Data set [4] deals with P. falciparum oocysts in Anopheles stephensi. In words: Standard membrane feeding assay, direct mode. The data set is classed as cell-based, Plasmodium falciparum. The following applies: compound added at the time of mosquito feeding, concentrations up to 1 μM. How it is done: ACT-451840 was tested in the standard membrane feeding assay at TropIQ (Nijmegen, The Netherlands) in two modes, as previously described. In the direct mode, the compound was directly added to a bloodmeal containing mature stage V gametocytes that was fed to Anopheles stephensi mosquitoes. […] Seven days after the bloodmeal, the number of oocysts in the midgut was determined by microscopy for both modes. […] Vehicle control (0.1% DMSO) and positive control (10 μM dihydroartemisinin) were included. Twenty mosquitoes were dissected per sample, and oocyst load was analyzed per mosquito.

A short description of data set [5]: Chromosome aberration study in vitro.
A short description of data set [6]: Blood to plasma ratio with 14C-labeled compound. The class given is in vitro ADME. The following applies: human fresh whole-blood, 0.5 μg/mL, 60 minutes, 37 °C. On the procedure:
The blood to plasma ratio was determined using ^14C-labeled ACT-451840 at Actelion Pharmaceuticals Ltd. (Allschwil, Switzerland). For this, human fresh whole-blood was spiked with a mixture of non-labeled and ^14C-labeled ACT-451840 at a nominal concentration of 0.5 μg / mL and incubated for 60 minutes on a rotary mixer at 37 °C. Radioactivity was determined by liquid scintillation counting in whole blood and after preparation of plasma.

The nature of data set [7]: Effect of formulation and food on oral pharmacokinetics in dogs. The data set is classed as in vivo. The following applies: for AUC0-∞ geometric mean / Cmax geometric mean: dogs. How it is done: The fumarate salt of ACT-451840 was administered orally at 10 mg/kg to fasted and fed male dogs (100 mg/dog, n = 4) as a suspension in an aqueous vehicle containing 0.5% (w/w) methylcellulose.

The mark [8] stands for this setting: 100 mg oral, aqueous suspension, fasted.
The mark [9] stands for this setting: fumarate salt 100 mg oral, aqueous suspension containing 0.5% methylcellulose, fasted.
Where [10] appears, read: fumarate salt 100 mg oral, aqueous suspension containing 0.5% methylcellulose, fed.
The mark [11] stands for this setting: methylcellulose suspension, higher in fed.

As to `CC(=O)N1CCN(c2ccc(CN(C(=O)/C=C/c3ccc(C(C)(C)C)cc3)[C@@H](Cc3ccccc3)C(=O)N3CCN(Cc4ccc(C#N)cc4)CC3)cc2)CC1` [ACT-451840], the IC50 is 1 ± 0.3 nM in data set [1]; 2.3 ± 0.6 nM with Cam3.II^C580Y parasites (Cam3.II^C580Y, 72 h, mean ± SEM, read-out: IC50); 2.1 ± 0.3 nM in [2] (Cam3.II^rev, 72 h, mean ± SEM, read-out: IC50); 0.21 ± 0.001 nM in data set [3] (V1/S, 72 h, mean ± SEM, read-out: IC50); 0.19 ± 0.015 nM with V1/S^C580Y parasites (V1/S^C580Y, 72 h, mean ± SEM, read-out: IC50). Further, the IC50 fold change worked out at 1.1 in the data set on Cam3.II^C580Y parasites (Cam3.II^C580Y versus Cam3.II^rev), 1.0 in [2] (Cam3.II^rev (parental reference line)), 1.0 in data set [3] (V1/S (parental reference line)) and 0.9 in the data set with V1/S^C580Y parasites (V1/S^C580Y versus V1/S). Moreover, the “activity against P. falciparum oocysts” value in [4] is “did not show any activity”. Besides, the “genotoxicity, chromosome aberration study” value in data set [5] is given as “not genotoxic”. Besides, the “blood to plasma concentration ratio” value in data set [6] is 0.6. For the same compound, the entries for the “AUC0-∞ geometric mean” value in [7] (setting [8]), in [7] (setting [9]) and in data set [7] (setting [10]) were 120 ng·h/mL, 304 ng·h/mL and 1720 ng·h/mL, respectively. The Cmax geometric mean stood at 26.2 ng/mL in data set [7] (setting [8]), 46.2 ng/mL in [7] (setting [9]) and 171 ng/mL in [7] (setting [10]). The “AUC fed dogs versus fasted dogs” value in data set [7] (setting [11]) was 5.7 fold. In addition, the “Cmax fed dogs versus fasted dogs” value in data set [7] (setting [11]) was found to be 3.7 fold.

The values are drawn from PMC5049785, “Characterization of Novel Antimalarial Compound ACT-451840: Preclinical Assessment of Activity and Dose–Efficacy Modeling” (PLoS Medicine, 2016).
